In publication PMC11997881, “Comprehensive Characterization of Bruton’s Tyrosine Kinase Inhibitor Specificity, Potency, and Biological Effects: Insights into Covalent and Noncovalent Mechanistic Signatures” (ACS Pharmacology & Translational Science, 2025):
pIC50, pKd: −log10 of the molar value. “Also recorded” adds a separate entry of the source.

Columns and labels:
[1] = tested on: 12 human primary cell systems; test: BioMAP Diversity PLUS Panel; format: cell-based; conditions: for number of biological effects (biomarkers modulated) / number of effects in a non-B cell (non-BT) model: 1 μM; for immunomodulatory activities / tissue remodeling activities / inflammation-related activities / hemostasis/angiogenesis-related activities: biomarker level relative to vehicle control: ↑ increase, ↓ decrease; for inflammation-related activities: ↓↑ both; for hemostasis/angiogenesis-related activities: TF in the 3C model; for antiproliferative effects: cell types affected, concentrations (nM) in brackets; for detectable cytotoxicity: concentrations (nM): ibrutinib 3300, 1100, 370, 120, pirtobrutinib and fenebrutinib 1000, 330, 110, 37, spebrutinib 370, 120, 41, 14
Description: BioMAP Diversity PLUS Panel (Eurofins Discovery, St. Charles, MO) is composed of 12 human primary cell cultures or cocultures. The systems and stimuli have been described previously. Adherent cells were added to 96-well plates, allowed to reach confluence, and incubated for 1 h with the indicated BTK inhibitor or assay control, all dissolved in 0.1% DMSO. The cells were then stimulated with cytokines, agonists, or growth factors and cultured for a minimum of 24 h at 37 °C in 5% CO2. Assay controls included DMSO-only (vehicle control), nonstimulated conditions (negative control), and a positive control test agent (colchicine at 1 μM).
Cell proliferation and viability were measured using 0.1% sulforhodamine B (SRB, Sigma–Aldrich) after fixation with 10% TCA, and reading wells at 560 nm for adherent cells, and using alamarBlue reduction (Bio-Rad) for suspension cells. These biomarkers were previously described by Shah and colleagues.
For each biomarker, the value obtained from the BTK inhibitor-treated samples was divided by the average of 8 DMSO-only controls from the same plate, yielding a ratio that was then transformed to the log10 scale. […] For cytotoxicity, we considered a decrease in the SRB readout greater than 50% (<−0.3 on the log10 scale) significant and excluded from the analysis the corresponding concentrations. The acceptance criteria and quality assurance of the BioMAP experiments have been previously described.

BTK C481S in TMD8 cells = conditions: IC50 measured in TMD8 cells (not in vitro); read-out: average published IC50 for BTK C481S; cited from earlier work
BTK C481S [2] = conditions: literature values; read-out: average published IC50 for BTK C481S; cited from earlier work
BTK C481S [3] = conditions: average of literature values; read-out: average published Kd for BTK C481S; cited from earlier work

SMILES: C[C@H]1CN(C2COC2)CCN1c1ccc(Nc2cc(-c3ccnc(N4CCn5c(cc6c5CC(C)(C)C6)C4=O)c3CO)cn(C)c2=O)nc1 [Fenebrutinib]
- number of biological effects (biomarkers modulated) [1]: 8
- number of effects in a non-B cell (non-BT) model [1]: 3
- immunomodulatory activities [1]: ↓ sIgG, sIL-2, sIL-6
- tissue remodeling activities [1]: none
- inflammation-related activities [1]: ↓ sTNFα, IL-1α
- hemostasis/angiogenesis-related activities [1]: ↑ TF
- hemostasis/angiogenesis-related activities ([1]; listed as fenebrutinib): increase in the production of Tissue Factor (TF)
- antiproliferative effects [1]: B cells (1000, 330, 110, 37)
- detectable cytotoxicity [1]: none
- pIC50 (BTK C481S in TMD8 cells): 8.11

SMILES: O=C(c1ccc(Oc2ccccc2)cc1Cl)c1c[nH]c2ncnc(N[C@@H]3CC[C@@H](CO)OC3)c12 [Nemtabrutinib]
- pIC50 (BTK C481S [2]): 9.41

SMILES: COc1ccc(F)cc1C(=O)NCc1ccc(-c2nn([C@@H](C)C(F)(F)F)c(N)c2C(N)=O)cc1 [Pirtobrutinib]
- number of biological effects (biomarkers modulated) [1]: 7
- number of effects in a non-B cell (non-BT) model [1]: 1
- immunomodulatory activities [1]: ↓ sIL-17A, sIL-17F, sIL-2, sIL-6
- tissue remodeling activities [1]: none
- inflammation-related activities [1]: ↓ sTNFα, IL-1α
- hemostasis/angiogenesis-related activities [1]: none
- antiproliferative effects [1]: B cells (1000, 330, 110, 37)
- detectable cytotoxicity [1]: none
- pIC50 (BTK C481S in TMD8 cells): 8.40
- pKd (BTK C481S [3]): 8.59

SMILES: C=CC(=O)Nc1cccc(Nc2nc(Nc3ccc(OCCOC)cc3)ncc2F)c1 [Spebrutinib]
- number of biological effects ([1]; 370 nM): 11
- number of effects not in the BT model ([1]; 370 nM): 6
- immunomodulatory activities [1]: ↓ sIL-17A, sIL-2, sIL-6
- tissue remodeling activities [1]: ↓ PAI-1, Col-I, Col-IV
- inflammation-related activities [1]: ↓ sTNFα
- hemostasis/angiogenesis-related activities [1]: none
- tissue remodeling activities ([1]; listed as spebrutinib): decreased the activity of tissue remodeling biomarkers
- antiproliferative effects [1]: B cells (370, 120, 41, 14); endothelial cells (370); CASM cells (370); fibroblast cells (370)
- antiproliferative effects ([1]; listed as spebrutinib): antiproliferative effects in endothelial (3C), coronary artery smooth muscle (CASM), and fibroblast (HDF3CGF) cells; also recorded: antiproliferative activity in CASM cells
- detectable cytotoxicity [1]: none
